System: Jurkat cell
Test: Cytotoxicity experiment (LDH analysis) on Jurkat cells exposed to Triton X-100
Assay type: cell-based
Details: Jurkat cell exposed to Triton X-100 (0 to 0.1%) for 30 min in CO2 incubator; LDH in separated culture medium, absorbance at 490 nm
Procedure: After the cell treated using Triton X-100 according to the Example of the present invention was separated using the apparatus for separating the microparticles, the apparatus fastened to the 1 mL syringe, and the conventional centrifuge, the cytotoxicity (%) was measured from the collected cell culture medium.
Specifically, a Jurkat cell was cultured in RPMI (WELGENE Inc., Korea) suspended using a 10% FBS (WELGENE) and a 1% antibiotic solution containing penicillin and streptomycin (WELGENE). In order to visualize the flow of the cell, the cell was washed with DPBS (WELGENE) and then dyed using a 10 μM CFDA cell tracer (Invitrogen) at room temperature for 15 min. After the dyeing, the cell was washed twice with DPBS.
The Jurkat cell was exposed to Triton X-100 at various concentrations (0 to 0.1%) in a CO2 incubator for 30 min. Subsequently, the fluid from which the microparticles were separated was obtained using the apparatus for separating the microparticles, to which the syringe was fastened, according to the present invention (manual injection at room temperature for 3 min), and the centrifuge (at 1000 rpm and room temperature for 5 min). […] The lactate dehydrogenase (LDH) analysis was performed in accordance with the manufacturer's directions (#88953, Pierce, Rockford, Ill.), and the absorbance was then measured at 490 nm. […]

For Triton X-100, the “IC50 value of Triton X-100 (cytotoxicity, LDH analysis)” value was 0.0076%.
